Tests used:
[1] = tested on: Bone marrow cells from CBA mice; assay: Bone Marrow Cell Proliferation (BM) assay; type: cell-based; settings: mouse cells
Procedure: Bone marrow cells from CBA mice (2.5×10^4 cells per well in flat bottom tissue culture microtiter plates) are incubated in 100 μL RPMI medium containing 10% FCS, 100 U/mL penicillin, 100 μg/mL streptomycin (Gibco BRL, Baselm Switzerland), 50 μM 2-mercaptoethanol (Fluka, Buchs, Switzerland), WEHI-3 conditioned medium (7.5% v/v) and L929 conditioned medium (3% v/v) as a source of growth factors and serially diluted compounds. Seven three-fold dilution steps in duplicates per test compounds are performed. After four days of incubation 1 μCi ^3H-thymidine is added. Cells are harvested after an additional five-hour incubation period, and incorporated ^3H-thymidine is determined according to standard procedures. Conditioned media are prepared as follows. WEHI-3 cells (ATCC TIB68) and L929 cells (ATCC CCL 1) are grown in RPMI medium until confluence for 4 days and one week, respectively. Cells are harvested, resuspended in the same culture flasks in medium C containing 1% FCS (Schreier and Tess 1981) for WEHI-3 cells and RPMI medium for L929 cells and incubated for 2 days (WEHI-3) or one week (L929). The supernatant is collected, filtered through 0.2 μm and stored in aliquots at −80° C. Cultures without test compounds and without WEHI-3 and L929 supernatants are used as low control values. Low control values are substracted from all values. […]

PKCδ = target: T1, PKCδ (Homo sapiens, UniProt Q05655); assay: Protein Kinase Cδ assay; type: biochemical; settings: ratio of IC50 values
T1 construct: purchased Oxford Biomedical Research
Procedure: (§1) The compounds of the invention are tested for their activity on different PKC isotypes according to the following method. Assay is performed in a white with clear bottom 384-well microtiterplate with non-binding surface. The reaction mixture (25 μl) contains 1.5 μM of a tridecapeptide acceptor substrate that mimics the pseudo substrate sequence of PKC a with the Ala→Ser replacement, 10 μM ^33P-ATP, 10 mM Mg(NO3)2, 0.2 mM CaCl2, PKC at a protein concentration varying from 25 to 400 ng/ml (depending on the isotype used), lipid vesicles (containing 30 mol % phosphatidylserine, 5 mol % DAG and 65 mol % phosphatidylcholine) at a final lipid concentration of 0.5 mM, in 20 mM Tris-HCl buffer pH 7.4+0.1% BSA. Incubation is performed for 60 min at room temperature.
Human recombinant PKC was obtained from Oxford Biomedical Research and is used under the assay conditions as described under Section A.1 above.

PKCβ1 = target: T2, PKCβ1 (Homo sapiens, UniProt P05771); assay: Protein Kinase Cβ1 assay; type: biochemical; settings: ratio of IC50 values
T2 construct: purchased Oxford Biomedical Research
Procedure: as §1
Human recombinant PKCβ1 was obtained from Oxford Biomedical Research and is used under the assay conditions as described under Section A.1 above.

PKCε = target: T3, PKCε (Homo sapiens, UniProt Q02156); assay: Protein Kinase Cε assay; type: biochemical; settings: ratio of IC50 values
T3 construct: purchased Oxford Biomedical Research
T3 sequence (Q02156 1-737): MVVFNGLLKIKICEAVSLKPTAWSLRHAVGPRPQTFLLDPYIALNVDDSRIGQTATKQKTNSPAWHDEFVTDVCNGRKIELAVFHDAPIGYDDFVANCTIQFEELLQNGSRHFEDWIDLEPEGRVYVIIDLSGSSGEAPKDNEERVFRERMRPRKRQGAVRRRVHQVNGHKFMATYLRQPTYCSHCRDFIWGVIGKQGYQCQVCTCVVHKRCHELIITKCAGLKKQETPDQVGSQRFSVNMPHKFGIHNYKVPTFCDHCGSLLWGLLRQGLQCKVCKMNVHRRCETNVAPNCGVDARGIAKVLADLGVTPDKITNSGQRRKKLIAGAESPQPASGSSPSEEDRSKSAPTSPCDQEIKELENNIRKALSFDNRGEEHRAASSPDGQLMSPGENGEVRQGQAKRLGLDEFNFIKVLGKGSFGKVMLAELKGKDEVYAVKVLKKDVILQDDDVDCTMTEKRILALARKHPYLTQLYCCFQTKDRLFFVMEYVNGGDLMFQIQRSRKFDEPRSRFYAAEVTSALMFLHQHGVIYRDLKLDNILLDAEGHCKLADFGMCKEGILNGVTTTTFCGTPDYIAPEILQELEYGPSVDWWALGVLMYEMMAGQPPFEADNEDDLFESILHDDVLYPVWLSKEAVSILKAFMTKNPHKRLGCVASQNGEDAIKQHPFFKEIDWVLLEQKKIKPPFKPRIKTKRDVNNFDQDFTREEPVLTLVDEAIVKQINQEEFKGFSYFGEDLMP
Procedure: as §1
Human recombinant PKCη was obtained from Oxford Biomedical Research and is used under the assay conditions as described under Section A.1 above.

PKCα = target: T4, PKCα (Homo sapiens, UniProt P17252); assay: Protein Kinase Cα assay; type: biochemical; settings: ratio of IC50 values
T4 construct: purchased Oxford Biomedical Research
Procedure: as §1
Human recombinant PKCα was obtained from Oxford Biomedical Research and is used under the assay conditions as described under Section A.1 above.

PKCθ = PKCθ (Homo sapiens, UniProt Q04759); assay: Protein Kinase C θ assay; type: biochemical; settings: ratio of IC50 values
Procedure: as §1
Human recombinant PKCθ is used under the assay conditions as described above.

PKCη = target: T5, PKCη (Homo sapiens, UniProt P24723); assay: Protein Kinase Cη assay; type: biochemical; settings: human recombinant PKCη
T5 construct: purchased PanVera
Procedure: as §1
Human recombinant PKCη was obtained from PanVera and is used under the assay conditions as described under Section A.1 above.

Sequence of PKCθ (Q04759 whole entry): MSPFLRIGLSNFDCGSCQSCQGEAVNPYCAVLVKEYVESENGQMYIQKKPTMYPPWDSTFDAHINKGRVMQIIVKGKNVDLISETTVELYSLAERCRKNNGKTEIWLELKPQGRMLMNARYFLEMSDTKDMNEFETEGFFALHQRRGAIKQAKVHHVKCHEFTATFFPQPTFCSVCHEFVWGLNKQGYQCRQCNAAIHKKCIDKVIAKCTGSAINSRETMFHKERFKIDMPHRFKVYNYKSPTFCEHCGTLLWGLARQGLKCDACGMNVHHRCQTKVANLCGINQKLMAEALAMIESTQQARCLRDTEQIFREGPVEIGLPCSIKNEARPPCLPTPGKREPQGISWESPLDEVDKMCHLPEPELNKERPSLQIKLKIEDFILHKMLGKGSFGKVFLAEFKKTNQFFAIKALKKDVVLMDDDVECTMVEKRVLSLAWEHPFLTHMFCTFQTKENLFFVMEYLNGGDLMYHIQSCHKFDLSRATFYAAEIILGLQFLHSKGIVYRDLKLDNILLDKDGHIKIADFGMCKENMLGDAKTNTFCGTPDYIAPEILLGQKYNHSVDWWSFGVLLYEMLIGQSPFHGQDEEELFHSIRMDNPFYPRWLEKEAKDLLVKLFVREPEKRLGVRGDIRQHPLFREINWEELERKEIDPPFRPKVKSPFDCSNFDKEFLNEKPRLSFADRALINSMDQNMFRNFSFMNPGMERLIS
T5 sequence (P24723 whole entry): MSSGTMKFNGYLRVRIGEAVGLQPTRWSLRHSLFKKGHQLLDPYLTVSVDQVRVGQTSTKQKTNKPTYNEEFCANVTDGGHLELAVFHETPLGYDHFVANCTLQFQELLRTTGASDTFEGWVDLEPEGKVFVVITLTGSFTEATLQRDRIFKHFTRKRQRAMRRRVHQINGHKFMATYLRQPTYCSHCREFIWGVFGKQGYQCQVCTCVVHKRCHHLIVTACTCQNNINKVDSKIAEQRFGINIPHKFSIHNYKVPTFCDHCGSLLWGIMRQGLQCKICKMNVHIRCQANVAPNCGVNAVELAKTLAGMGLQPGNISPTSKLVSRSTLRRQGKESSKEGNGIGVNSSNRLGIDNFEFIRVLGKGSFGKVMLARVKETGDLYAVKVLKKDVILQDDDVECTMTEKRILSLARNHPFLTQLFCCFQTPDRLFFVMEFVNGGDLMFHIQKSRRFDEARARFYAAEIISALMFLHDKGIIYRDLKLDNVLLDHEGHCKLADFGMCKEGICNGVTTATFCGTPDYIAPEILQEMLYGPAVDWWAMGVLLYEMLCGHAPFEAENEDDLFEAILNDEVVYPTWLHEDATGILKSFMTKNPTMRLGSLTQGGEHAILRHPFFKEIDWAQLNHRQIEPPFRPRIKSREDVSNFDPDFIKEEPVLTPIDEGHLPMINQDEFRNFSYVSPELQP
T2 sequence (P05771 whole entry): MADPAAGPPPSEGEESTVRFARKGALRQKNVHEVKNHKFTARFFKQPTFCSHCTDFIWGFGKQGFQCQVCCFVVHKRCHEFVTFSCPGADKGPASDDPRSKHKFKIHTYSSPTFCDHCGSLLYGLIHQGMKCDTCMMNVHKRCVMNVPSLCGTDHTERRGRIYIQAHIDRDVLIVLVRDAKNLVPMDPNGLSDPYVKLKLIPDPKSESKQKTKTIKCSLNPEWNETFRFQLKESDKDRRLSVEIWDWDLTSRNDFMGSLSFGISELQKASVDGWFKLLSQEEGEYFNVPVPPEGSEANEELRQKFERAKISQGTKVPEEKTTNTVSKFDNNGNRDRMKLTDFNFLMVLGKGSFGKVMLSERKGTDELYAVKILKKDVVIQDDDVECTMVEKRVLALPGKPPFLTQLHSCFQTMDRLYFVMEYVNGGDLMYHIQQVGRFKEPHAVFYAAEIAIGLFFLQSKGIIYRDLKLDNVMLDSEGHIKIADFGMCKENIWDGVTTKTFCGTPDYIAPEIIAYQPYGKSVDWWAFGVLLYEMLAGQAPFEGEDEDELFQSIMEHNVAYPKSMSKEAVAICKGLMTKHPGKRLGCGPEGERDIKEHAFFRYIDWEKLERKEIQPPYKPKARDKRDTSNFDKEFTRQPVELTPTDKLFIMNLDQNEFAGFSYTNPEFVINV
T1 sequence (Q05655 whole entry): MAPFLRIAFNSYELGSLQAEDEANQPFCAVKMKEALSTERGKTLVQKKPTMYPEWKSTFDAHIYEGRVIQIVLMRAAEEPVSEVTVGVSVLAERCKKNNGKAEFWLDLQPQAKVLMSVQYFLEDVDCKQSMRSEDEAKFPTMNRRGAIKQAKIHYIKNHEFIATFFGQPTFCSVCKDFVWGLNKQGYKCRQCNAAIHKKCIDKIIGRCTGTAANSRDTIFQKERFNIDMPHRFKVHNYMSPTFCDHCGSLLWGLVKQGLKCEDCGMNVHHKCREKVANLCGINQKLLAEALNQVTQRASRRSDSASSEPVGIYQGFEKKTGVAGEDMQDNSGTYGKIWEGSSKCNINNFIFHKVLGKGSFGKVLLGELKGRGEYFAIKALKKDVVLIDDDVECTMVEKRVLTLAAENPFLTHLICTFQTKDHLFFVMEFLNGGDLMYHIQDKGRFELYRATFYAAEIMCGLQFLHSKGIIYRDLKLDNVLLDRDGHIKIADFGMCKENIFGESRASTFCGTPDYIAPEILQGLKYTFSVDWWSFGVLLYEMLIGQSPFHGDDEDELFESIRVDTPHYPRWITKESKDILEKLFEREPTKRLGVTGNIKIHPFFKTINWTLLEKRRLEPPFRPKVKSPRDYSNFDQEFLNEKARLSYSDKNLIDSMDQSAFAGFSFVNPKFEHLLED

SMILES | BM/MLR: ratio of IC50 values of BM assay and MLR assay [1] | δ/η: ratio of the IC50 value for PKCδ to the IC50 value for PKCη (PKCδ) | β/η: ratio of the IC50 value for PKC β to the IC50 value for PKCη (PKCβ1) | ε/η: ratio of the IC50 value for PKCε to the IC50 value for PKCη (PKCε) | α/η: ratio of the IC50 value for PKCα to the IC50 value for PKCη (PKCα) | θ/η: ratio of the IC50 value for PKCθ to the IC50 value for PKCη (PKCθ) | IC50 (PKCη)
C[C@H](N)CNc1nc(-c2ccncc2)cc2cnccc12 [Example 71a, (S)—N*1*-(3-Pyridin-4-yl-[2,6]naphthyridin-1-yl)-propane-1,2-diamine] | 30 | 4 | 196 | 3 | 506 | 30 | 
C[C@@H]1CN(c2nc(-c3ccncc3)cc3cnccc23)[C@@H](C)CN1 (racemic) [Example 23, Rac-1-((2S,5R)-2,5-Dimethyl-piperazin-1-yl)-3-pyridin-4-yl-[2,6]naphthyridine] | 24 | 15 | 14 | 1 | 17 | 26 | 
CC(C)(N)COc1nc(-c2ccncc2)cc2cnccc12 [Example 81, 1,1-Dimethyl-2-(3-pyridin-4-yl-[2,6]naphthyridin-1-yloxy)-ethylamine] |  |  |  |  |  |  | 162 nM
CC(C)(N)CNc1cc(-c2ccncc2)cc2cnccc12 [Example 83, 2-Methyl-N*1*-(7-pyridin-4-yl-isoquinolin-5-yl)-propane-1,2-diamine] |  |  |  |  |  |  | 54 nM

— patent publication US20100130469A1, “2, 6-NAPHTHRIDINE DERIVATIVES” (priority 2007, published 2010)
